From ChEMBL document CHEMBL1131101, “2-, 5-, and 6-Halo-3-(2(S)-azetidinylmethoxy)pyridines: synthesis, affinity for nicotinic acetylcholine receptors, and molecular modeling” (J Med Chem, 1998)

Target: Neuronal acetylcholine receptor; alpha4/beta2 (Rattus norvegicus, UniProt P09483+P12390)
Assay: Binding affinity for alpha4 beta-2 nAChR using [3H]epibatidine in rat brain
Assay type: tissue-based

Chain of Neuronal acetylcholine receptor; alpha4/beta2 (P09483 whole entry): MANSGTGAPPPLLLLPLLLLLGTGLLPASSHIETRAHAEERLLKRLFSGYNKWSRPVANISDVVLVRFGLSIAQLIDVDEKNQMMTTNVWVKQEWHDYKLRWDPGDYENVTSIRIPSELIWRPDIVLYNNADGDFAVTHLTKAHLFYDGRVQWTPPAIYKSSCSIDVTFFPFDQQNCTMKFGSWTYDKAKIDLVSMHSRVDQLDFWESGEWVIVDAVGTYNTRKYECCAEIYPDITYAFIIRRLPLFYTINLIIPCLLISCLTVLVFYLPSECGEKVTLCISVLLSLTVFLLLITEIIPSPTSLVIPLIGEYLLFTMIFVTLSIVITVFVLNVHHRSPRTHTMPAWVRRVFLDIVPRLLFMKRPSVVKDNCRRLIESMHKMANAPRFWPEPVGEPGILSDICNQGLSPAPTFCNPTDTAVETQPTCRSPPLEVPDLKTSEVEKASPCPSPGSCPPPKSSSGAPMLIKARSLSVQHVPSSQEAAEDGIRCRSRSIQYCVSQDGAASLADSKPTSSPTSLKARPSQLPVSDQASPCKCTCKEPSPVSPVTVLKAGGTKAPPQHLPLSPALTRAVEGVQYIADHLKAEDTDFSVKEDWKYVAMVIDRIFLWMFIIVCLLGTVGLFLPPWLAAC
Chain of Neuronal acetylcholine receptor; alpha4/beta2 (P12390 whole entry): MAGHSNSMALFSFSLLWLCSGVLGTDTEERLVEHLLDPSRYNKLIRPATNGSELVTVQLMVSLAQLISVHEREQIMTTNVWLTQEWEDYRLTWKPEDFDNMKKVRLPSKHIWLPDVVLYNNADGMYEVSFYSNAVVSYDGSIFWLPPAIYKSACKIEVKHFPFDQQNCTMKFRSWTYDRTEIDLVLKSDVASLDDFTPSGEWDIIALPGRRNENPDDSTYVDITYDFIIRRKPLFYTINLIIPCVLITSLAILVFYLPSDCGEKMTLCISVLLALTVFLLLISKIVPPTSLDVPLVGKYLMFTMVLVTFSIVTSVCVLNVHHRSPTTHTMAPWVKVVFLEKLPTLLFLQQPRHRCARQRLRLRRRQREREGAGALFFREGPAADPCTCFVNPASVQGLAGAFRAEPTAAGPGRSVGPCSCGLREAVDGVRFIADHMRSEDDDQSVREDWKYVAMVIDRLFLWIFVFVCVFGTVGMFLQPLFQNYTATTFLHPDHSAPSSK

Question: For `Ic1ncccc1OC[C@@H]1CCN1`, which Ki is on record?
Answer: > 0.001 nM

Question: Which Ki does the source give for `Ic1ccc(OC[C@@H]2CCN2)cn1` here?
Answer: 0.15 nM

Question: `Brc1ncccc1OC[C@@H]1CCN1` was tested. Which Ki did it give?
Answer: 0.24 nM

Question: For `Fc1ccc(OC[C@@H]2CCN2)cn1`, which Ki is on record?
Answer: 0.025 nM

Question: Which Ki does the source give for `c1cncc(OC[C@@H]2CCN2)c1` here?
Answer: 0.017 nM

Question: For `Clc1ncccc1OC[C@@H]1CCN1`, which Ki is on record?
Answer: 0.0084 nM

Question: For `Clc1cncc(OC[C@@H]2CCN2)c1`, which Ki is on record?
Answer: 0.03 nM

Question: With `Fc1cncc(OC[C@@H]2CCN2)c1` as the compound, how does the Ki read?
Answer: 0.025 nM

Question: `Brc1cncc(OC[C@@H]2CCN2)c1` was tested. Which Ki did it give?
Answer: 0.021 nM
